Test results taken from ChEMBL document CHEMBL1201862, “PubChem BioAssay data set” (2004).
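Each compound was tested at five concentrations against cells in 96-well plates for 48 hours. GI50: concentration for 50% inhibition of growth.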 The source made the active and inactive calls. Rule as the data show it: active = GI50 up to about 1.1 µM and inactive = higher.

What was measured:
Test in all cases: NCI tumour cell line growth inhibition, 48 h
XF498 = test system: XF498
DLD-1 = test system: DLD-1
HOP-18 = test system: HOP-18
DMS-114 = test system: DMS-114
SNB-78 = test system: SNB-78
LXFL 529 = test system: LXFL 529
M19-MEL = test system: M19-MEL
DMS-273 = test system: DMS-273
RXF 631 = test system: RXF 631

Measured: GI50

O=[N+]([O-])c1ccc2nc3ccscc-3c2c1
inactive: XF498 17.1 µM | DLD-1 9.64 µM | HOP-18 14.1 µM | DMS-114 16.9 µM | SNB-78 23 µM | LXFL 529 13.7 µM | M19-MEL 20.1 µM | DMS-273 12.2 µM | RXF 631 14.8 µM

O=[N+]([O-])c1ccc2c(Nc3ccccc3-c3ccccc3Nc3c4ccccc4nc4cc([N+](=O)[O-])ccc34)c3ccccc3nc2c1
inactive: XF498 1.59 µM | DLD-1 2.63 µM | HOP-18 > 100 µM | DMS-114 11.1 µM | SNB-78 > 100 µM | LXFL 529 2.61 µM | M19-MEL 6.56 µM | DMS-273 4.58 µM | RXF 631 5.9 µM

Cc1cc(N(CCC#N)CCC#N)ccc1/N=N/c1ccc([N+](=O)[O-])cc1
inactive: DMS-114 19 µM | SNB-78 34.1 µM | M19-MEL > 100 µM | DMS-273 17 µM

Cc1cc(OCC(O)CO)ccc1-c1ccccc1 (centres undefined)
inactive: XF498 37.1 µM | HOP-18 > 100 µM | DMS-114 > 100 µM | SNB-78 > 100 µM | LXFL 529 > 100 µM | M19-MEL > 100 µM | DMS-273 > 100 µM

NC(CCc1nc(-c2ccc(Cl)cc2)cs1)C(=O)O (centres undefined)
inactive: DLD-1 > 100 µM | HOP-18 > 100 µM | SNB-78 > 100 µM | LXFL 529 > 100 µM | M19-MEL > 100 µM | DMS-273 > 100 µM | RXF 631 > 100 µM

CCOC(=O)C(=O)Nc1c(C)cccc1CC
inactive: XF498 > 100 µM | DLD-1 > 100 µM | HOP-18 > 100 µM | DMS-114 > 100 µM | SNB-78 > 100 µM | LXFL 529 > 100 µM | M19-MEL > 100 µM | RXF 631 > 100 µM

N#CN1CCC=C(c2cc3ccccc3[nH]2)C1
inactive: DLD-1 370 µM | HOP-18 > 448 µM | LXFL 529 236 µM | M19-MEL 243 µM | DMS-273 428 µM | RXF 631 281 µM

CC(=O)NC(CCCN(Cc1ccccc1)C(=O)N(CCCl)N=O)C(=O)NCc1ccccc1 (centres undefined)
inactive: XF498 > 37.8 µM | DLD-1 62.7 µM | HOP-18 > 100 µM | DMS-114 > 100 µM | SNB-78 54.1 µM | LXFL 529 > 100 µM | DMS-273 41 µM

CC1CCC2(C(=O)O)CCC3(C)C(=CCC4C5(C)CCC(O)C(C)(C)C5CCC43C)C2C1C (centres undefined)
inactive: XF498 5.86 µM | DLD-1 6.53 µM | HOP-18 15.5 µM | DMS-114 9.42 µM | SNB-78 13.3 µM | M19-MEL 8.17 µM | DMS-273 10.9 µM

NC(=S)N/N=C(\CC1OC(=O)c2ccccc21)c1ccc(Cl)cc1 (centres undefined)
inactive: XF498 47 µM | DLD-1 41.3 µM | DMS-114 24.6 µM | SNB-78 36.9 µM | LXFL 529 28.8 µM | M19-MEL 21.9 µM | DMS-273 41 µM | RXF 631 24 µM

O=C1N2Cc3c4ccc5c3CN3C(=O)N6Cc7c(ccc(c7CN1C6(c1ccccc1)C23c1ccccc1)OCCOCCNCCOCCO4)OCCOCCNCCOCCO5 (centres undefined)
inactive: XF498 60.1 µM | DLD-1 > 100 µM | HOP-18 14.4 µM | DMS-114 > 100 µM | SNB-78 > 100 µM | LXFL 529 13.7 µM | M19-MEL 24.9 µM | DMS-273 41.2 µM | RXF 631 31.4 µM

COc1cc(C(=O)CC2(O)C(=O)Nc3c(Cl)cc(Cl)cc32)ccc1O (centres undefined)
inactive: XF498 48.3 µM | DLD-1 41.9 µM | HOP-18 34.4 µM | DMS-114 37.8 µM | SNB-78 87.9 µM | LXFL 529 27.9 µM | DMS-273 53 µM | RXF 631 > 100 µM
